In brackets after ≈: the same amount, converted by molar mass. Numbered stars: 1 amine (or outer) side, 2 acyl side, 3 side chain; on linkers, the order of the positions; unused ones are H or OH. Bridge positions count the residues as written; N and C are the ends. Square brackets hold non-standard residues; d marks the D form. Peptide text beside a SMILES is read from it. ξ: configuration not given here. ξαMeNle(6-ylidene) = CC(CCCC=[*:3])(N[*:1])C(=O)[*:2]; S5 = C=CCCC[C@](C)(N)C(=O)O
How the values were obtained:
Staphylococcus aureus = experiment: Antibacterial activity against Staphylococcus aureus ATCC 25923 assessed as inhibition of bacterial growth measured after 24 hrs by broth microdilution method; assay type: functional
Klebsiella pneumoniae = experiment: Antibacterial activity against Klebsiella pneumoniae ATCC 13883 assessed as inhibition of bacterial growth measured after 24 hrs by broth microdilution method; assay type: functional
Pseudomonas aeruginosa = experiment: Antibacterial activity against Pseudomonas aeruginosa PAO1 assessed as inhibition of bacterial growth measured after 24 hrs by broth microdilution method; assay type: functional
[1] = Hemolytic activity in human RBC assessed as hemolysis incubated for 1 hr by microplate reader; assay type: toxicity, cell-based, Erythrocyte; conditions: erythrocyte, 1 h

Row | MIC (Staphylococcus aureus) [µM] | MIC (Klebsiella pneumoniae) [µM] | MIC (Pseudomonas aeruginosa) [µM] | SMILES | Activity [1]
1 | 3.13 (≈ 12.7 µg/mL) | 12.5 (≈ 50.7 µg/mL) | 12.5 (≈ 50.7 µg/mL) | CC[C@H](C)[C@H](NC(=O)CNC(=O)[C@H](CC(=O)O)NC(=O)[C@H](CCCNC(=N)N)NC(=O)[C@@H](NC(=O)[C@H](CC(N)=O)NC(=O)[C@H](CCC(N)=O)NC(=O)CNC(=O)[C@@H](NC(=O)[C@H](CCCCN)NC(=O)[C@H](CCC(=O)O)NC(=O)[C@@H](NC(=O)[C@H](CCCCN)NC(=O)[C@H](CCCCN)NC(=O)[C@H](Cc1ccccc1)NC(=O)[C@H](CC(C)C)NC(=O)[C@H](CCCCN)NC(=O)[C@H](Cc1c[nH]c2ccccc12)NC(=O)[C@H](CCCCN)NC(C)=O)[C@@H](C)CC)C(C)C)[C@@H](C)CC)C(=O)N[C@H](C(=O)N[C@@H](CCCCN)C(=O)N[C@@H](C)C(=O)NCC(=O)N1CCC[C@H]1C(=O)N[C@@H](C)C(=O)N[C@H](C(=O)N[C@@H](C)C(=O)N[C@H](C(=O)N[C@H](C(=O)NCC(=O)N[C@@]1(C)CCC/C=C\CCC[C@@](C)(C(=O)N[C@@H](C)C(=O)N[C@@H](CCCCN)C(N)=O)NC(=O)[C@H](CCC(N)=O)NC(=O)[C@H]([C@@H](C)O)NC(=O)[C@H](C)NC1=O)C(C)C)C(C)C)C(C)C)[C@@H](C)CC (Ac-KWKLFKKIEKVGQNIRDGIIKAGPAVAVVG[S5]ATQ[S5]AK-NH2; staple (Z) 31-35) | Non-toxic
2 | 3.13 (≈ 12.9 µg/mL) | 6.25 (≈ 25.7 µg/mL) | 6.25 (≈ 25.7 µg/mL) | CC[C@H](C)[C@H](NC(=O)CNC(=O)[C@H](CC(=O)O)NC(=O)[C@H](CCCNC(=N)N)NC(=O)[C@@H](NC(=O)[C@H](CC(N)=O)NC(=O)[C@H](CCC(N)=O)NC(=O)CNC(=O)[C@@H](NC(=O)[C@H](CCCCN)NC(=O)[C@H](CCC(=O)O)NC(=O)[C@@H](NC(=O)[C@H](CCCCN)NC(=O)[C@H](CCCCN)NC(=O)[C@H](Cc1ccccc1)NC(=O)[C@H](CC(C)C)NC(=O)[C@H](CCCCN)NC(=O)[C@H](Cc1c[nH]c2ccccc12)NC(=O)[C@H](CCCCN)NC(C)=O)[C@@H](C)CC)C(C)C)[C@@H](C)CC)C(=O)N[C@H](C(=O)N[C@@H](CCCCN)C(=O)N[C@@H](C)C(=O)NCC(=O)N1CCC[C@H]1C(=O)N[C@@H](C)C(=O)N[C@H](C(=O)N[C@@H](C)C(=O)N[C@H](C(=O)N[C@H](C(=O)NC1(C)CCC/C=C\CCC[C@@](C)(C(=O)N[C@H](C(=O)N[C@@H](C)C(=O)N[C@@H](CCCCN)C(N)=O)[C@@H](C)CC)NC(=O)[C@H]([C@@H](C)O)NC(=O)[C@H](C)NC(=O)[C@H](CCC(N)=O)NC1=O)C(C)C)C(C)C)C(C)C)[C@@H](C)CC (stereo partly drawn) (Ac-KWKLFKKIEKVGQNIRDGIIKAGPAVAVV[ξαMeNle(6-ylidene)]QAT[S5]IAK-NH2; staple (Z) 30-34) | Non-toxic
3 | > 100 | > 100 | > 100 | CC[C@H](C)[C@H](NC(=O)[C@H](CCC(N)=O)NC(=O)[C@@H](NC(=O)[C@H](C)NC(=O)[C@H](CCC(N)=O)NC(=O)CNC(=O)[C@@H](NC(=O)[C@@H](NC(=O)[C@H](C)NC(=O)[C@@H](NC(=O)[C@H](C)NC(=O)[C@@H]1CCCN1C(=O)CNC(=O)[C@H](C)NC(=O)[C@H](CCCCN)NC(=O)[C@@H](NC(=O)[C@@H](NC(=O)[C@]1(C)CCC/C=C\CCC[C@](C)(NC(=O)[C@H](CCC(N)=O)NC(=O)CNC(=O)[C@@H](NC(=O)[C@H](CCCCN)NC(=O)[C@H](CCC(=O)O)NC(=O)[C@@H](NC(=O)[C@H](CCCCN)NC(=O)[C@H](CCCCN)NC(=O)[C@H](Cc2ccccc2)NC(=O)[C@H](CC(C)C)NC(=O)[C@H](CCCCN)NC(=O)[C@H](Cc2c[nH]c3ccccc23)NC(=O)[C@H](CCCCN)NC(C)=O)[C@@H](C)CC)C(C)C)C(=O)N[C@@H]([C@@H](C)CC)C(=O)N[C@@H](CCCNC(=N)N)C(=O)N[C@@H](CC(=O)O)C(=O)N1)[C@@H](C)CC)[C@@H](C)CC)C(C)C)C(C)C)C(C)C)[C@@H](C)O)C(=O)N[C@@H](C)C(=O)N[C@@H](CCCCN)C(N)=O (Ac-KWKLFKKIEKVGQ[S5]IRD[S5]IIKAGPAVAVVGQATQIAK-NH2; staple (Z) 14-18) | 
4 | 25 (≈ 102 µg/mL) | > 100 | > 100 | CC[C@H](C)[C@H](NC(=O)CNC(=O)[C@H](CC(=O)O)NC(=O)[C@]1(C)CCC/C=C\CCC[C@](C)(NC(=O)[C@@H](NC(=O)[C@H](CCCCN)NC(=O)[C@H](CCC(=O)O)NC(=O)[C@@H](NC(=O)[C@H](CCCCN)NC(=O)[C@H](CCCCN)NC(=O)[C@H](Cc2ccccc2)NC(=O)[C@H](CC(C)C)NC(=O)[C@H](CCCCN)NC(=O)[C@H](Cc2c[nH]c3ccccc23)NC(=O)[C@H](CCCCN)NC(C)=O)[C@@H](C)CC)C(C)C)C(=O)N[C@@H](CCC(N)=O)C(=O)N[C@@H](CC(N)=O)C(=O)N[C@@H]([C@@H](C)CC)C(=O)N1)C(=O)N[C@H](C(=O)N[C@@H](CCCCN)C(=O)N[C@@H](C)C(=O)NCC(=O)N1CCC[C@H]1C(=O)N[C@@H](C)C(=O)N[C@H](C(=O)N[C@@H](C)C(=O)N[C@H](C(=O)N[C@H](C(=O)NCC(=O)N[C@@H](CCC(N)=O)C(=O)N[C@@H](C)C(=O)N[C@H](C(=O)N[C@@H](CCC(N)=O)C(=O)N[C@H](C(=O)N[C@@H](C)C(=O)N[C@@H](CCCCN)C(N)=O)[C@@H](C)CC)[C@@H](C)O)C(C)C)C(C)C)C(C)C)[C@@H](C)CC (Ac-KWKLFKKIEKV[S5]QNI[S5]DGIIKAGPAVAVVGQATQIAK-NH2; staple (Z) 12-16) | 
5 | > 100 | > 100 | > 100 | CC[C@H](C)[C@H](NC(=O)CNC(=O)[C@H](CC(=O)O)NC(=O)[C@H](CCCNC(=N)N)NC(=O)[C@@H](NC(=O)[C@H](CC(N)=O)NC(=O)[C@H](CCC(N)=O)NC(=O)CNC(=O)[C@@H](NC(=O)[C@]1(C)CCC/C=C\CCC[C@](C)(NC(=O)[C@H](Cc2ccccc2)NC(=O)[C@H](CC(C)C)NC(=O)[C@H](CCCCN)NC(=O)[C@H](Cc2c[nH]c3ccccc23)NC(=O)[C@H](CCCCN)NC(C)=O)C(=O)N[C@@H](CCCCN)C(=O)N[C@@H]([C@@H](C)CC)C(=O)N[C@@H](CCC(=O)O)C(=O)N1)C(C)C)[C@@H](C)CC)C(=O)N[C@H](C(=O)N[C@@H](CCCCN)C(=O)N[C@@H](C)C(=O)NCC(=O)N1CCC[C@H]1C(=O)N[C@@H](C)C(=O)N[C@H](C(=O)N[C@@H](C)C(=O)N[C@H](C(=O)N[C@H](C(=O)NCC(=O)N[C@@H](CCC(N)=O)C(=O)N[C@@H](C)C(=O)N[C@H](C(=O)N[C@@H](CCC(N)=O)C(=O)N[C@H](C(=O)N[C@@H](C)C(=O)N[C@@H](CCCCN)C(N)=O)[C@@H](C)CC)[C@@H](C)O)C(C)C)C(C)C)C(C)C)[C@@H](C)CC (Ac-KWKLF[S5]KIE[S5]VGQNIRDGIIKAGPAVAVVGQATQIAK-NH2; staple (Z) 6-10) | 
6 | > 100 | 12.5 (≈ 50.9 µg/mL) | 100 (≈ 407 µg/mL) | CC[C@H](C)[C@H](NC(=O)[C@H](CCC(N)=O)NC(=O)[C@@H](NC(=O)[C@H](C)NC(=O)[C@H](CCC(N)=O)NC(=O)CNC(=O)[C@@H](NC(=O)[C@@H](NC(=O)[C@H](C)NC(=O)[C@@H](NC(=O)[C@H](C)NC(=O)[C@@H]1CCCN1C(=O)CNC(=O)[C@H](C)NC(=O)[C@H](CCCCN)NC(=O)[C@@H](NC(=O)[C@]1(C)CCC/C=C\CCC[C@](C)(NC(=O)[C@H](CC(N)=O)NC(=O)[C@H](CCC(N)=O)NC(=O)CNC(=O)[C@@H](NC(=O)[C@H](CCCCN)NC(=O)[C@H](CCC(=O)O)NC(=O)[C@@H](NC(=O)[C@H](CCCCN)NC(=O)[C@H](CCCCN)NC(=O)[C@H](Cc2ccccc2)NC(=O)[C@H](CC(C)C)NC(=O)[C@H](CCCCN)NC(=O)[C@H](Cc2c[nH]c3ccccc23)NC(=O)[C@H](CCCCN)NC(C)=O)[C@@H](C)CC)C(C)C)C(=O)N[C@@H](CCCNC(=N)N)C(=O)N[C@@H](CC(=O)O)C(=O)NCC(=O)N1)[C@@H](C)CC)C(C)C)C(C)C)C(C)C)[C@@H](C)O)C(=O)N[C@@H](C)C(=O)N[C@@H](CCCCN)C(N)=O (Ac-KWKLFKKIEKVGQN[S5]RDG[S5]IKAGPAVAVVGQATQIAK-NH2; staple (Z) 15-19) | 
7 | 25 (≈ 102 µg/mL) | 6.25 (≈ 25.5 µg/mL) | 80 (≈ 327 µg/mL) | CC[C@H](C)[C@H](NC(=O)CNC(=O)[C@H](CC(=O)O)NC(=O)[C@H](CCCNC(=N)N)NC(=O)[C@]1(C)CCC/C=C\CCC[C@](C)(NC(=O)[C@H](CCCCN)NC(=O)[C@H](CCC(=O)O)NC(=O)[C@@H](NC(=O)[C@H](CCCCN)NC(=O)[C@H](CCCCN)NC(=O)[C@H](Cc2ccccc2)NC(=O)[C@H](CC(C)C)NC(=O)[C@H](CCCCN)NC(=O)[C@H](Cc2c[nH]c3ccccc23)NC(=O)[C@H](CCCCN)NC(C)=O)[C@@H](C)CC)C(=O)NCC(=O)N[C@@H](CCC(N)=O)C(=O)N[C@@H](CC(N)=O)C(=O)N1)C(=O)N[C@H](C(=O)N[C@@H](CCCCN)C(=O)N[C@@H](C)C(=O)NCC(=O)N1CCC[C@H]1C(=O)N[C@@H](C)C(=O)N[C@H](C(=O)N[C@@H](C)C(=O)N[C@H](C(=O)N[C@H](C(=O)NCC(=O)N[C@@H](CCC(N)=O)C(=O)N[C@@H](C)C(=O)N[C@H](C(=O)N[C@@H](CCC(N)=O)C(=O)N[C@H](C(=O)N[C@@H](C)C(=O)N[C@@H](CCCCN)C(N)=O)[C@@H](C)CC)[C@@H](C)O)C(C)C)C(C)C)C(C)C)[C@@H](C)CC (Ac-KWKLFKKIEK[S5]GQN[S5]RDGIIKAGPAVAVVGQATQIAK-NH2; staple (Z) 11-15) | 

— ChEMBL document CHEMBL6115030, “Systematic All-Hydrocarbon Stapling Analysis for Cecropin A Generates a Potent and Stable Antimicrobial Peptide” (J Med Chem, 2025)
